In patent US20240239771A1, “BACTERIAL EFFLUX PUMP INHIBITORS” (priority 2020, published 2024):
Where a name gives a salt, the structure may show the parent alone. Read-outs that look alike come from different tables or passages of the source.

Tests used:
[1] = tested on: Pseudomonas aeruginosa ATCC 27853; experiment: Intrinsic MIC assay (CLSI broth microdilution); format: cell-based
Method: MIC assays were conducted in accordance with Clinical and Laboratory Standards Institute (CLSI) guidelines for broth microdilution. A 96-well plate containing cation-adjusted Mueller-Hinton (CAMH broth with 2-fold serial dilution of compounds was inoculated with log-phase bacterial at 5×10^5 CFU/mL. The final volume in each well was 100 μL. Each compound was tested in duplicate. The microtiter plates were incubated in an aerobic environment for 18 hours at 37° C. Then the bacterial growth was tested by reading the plate with a VersaMax plate reader (Molecular Devices, Inc.) at 600 nm. The MIC was defined as the lowest compound concentration that inhibited 90% of bacteria growth.
The intrinsic MIC of the experimental EPIs was tested with the method described. The 2-fold serial dilution begins with 100 μg/mL of tested compound in the first column of the 96-well plates. The following Gram-negative bacterial strain was included in these assays: Pseudomonas aeruginosa ATCC 27853.

[2] = tested on: Pseudomonas aeruginosa ATCC 27853; experiment: Standard EPI assay: MIC of test antibiotic in absence and presence of EPI; format: cell-based; settings: for Enhanced Antibiotic's Activity (fold increase), Ceftazidime: ceftazidime with compound at 6.25 μg/mL, relative to MIC without EPI (2 μg/mL); for Enhanced Antibiotic's Activity (fold increase), Doxycycline: doxycycline with compound at 6.25 μg/mL, relative to MIC without EPI (32 μg/mL); for Enhanced Antibiotic's Activity (fold increase), Levofloxacin: levofloxacin with compound at 6.25 μg/mL, relative to MIC without EPI (1 μg/mL); for MIC of antibiotic in the absence of EPI: antibiotic alone, P. aeruginosa ATCC 27853
Method: The EPI assay for the purposes of these studies represents a MIC assay in which the MIC of the antibiotic against the bacteria is tested in the presence of an experimental efflux pump inhibitor (EPI). The highest concentration of the EPI present in the assay typically is ½ of the intrinsic MIC of the compound. If the intrinsic MIC of the EPI is greater than 100 μg/mL, the EPI assay was tested with 50 μg/mL. Using serial dilutions of the EPI, its enhancement of antibiotic activity was then evaluated. The relative EPI activity was decided by comparing the MIC of the antibiotic in the presence of the EPI compound with the intrinsic MIC of the antibiotic alone.
The impact of the EPIs on the MIC values of three test antibiotics (levofloxacin, ceftazidime and doxycycline) against P. aeruginosa ATCC 27853 were evaluated using our standard EPI assay. All three antibiotics levofloxacin, ceftazidime and doxycycline are known substrates of efflux pumps in P. aeruginosa, and are thus well-suited to be test antibiotics to assay for EPI activity.
In our standard EPI assay, the MIC of the test antibiotic is determined in the absence and presence of sub-inhibitory concentrations of the EPI. […] The MIC of levofloxacin against P. aeruginosa ATCC 27853 in the absence of EPI is 1 μg/mL. […] Similarly, the MIC of ceftazidime against P. aeruginosa ATCC 27853 in the absence of EPI is 2 μg/mL. In the presence of 6.25 μg/mL of the Example 4, the MIC of ceftazidime was reduced to 0.5 μg/mL, a 4-fold reduction. […] For all the examples in Table 1, the potentiation activities are determined at 6.25 μg/mL.

[3] = ATCC27853, read-out: Intrinsic MIC of Compound

NCC(CO)C[C@@H](N)CNC(=O)c1[nH]c2ccccc2c1-c1ccc(F)cc1 (stereo partly drawn) [Example 16, N-((2R)-2,5-diamino-4-(hydroxymethyl)pentyl)-3-(4-fluorophenyl)-1H-indole-2-carboxamide hydrogen chloride salt]
MIC [1, 3]: > 100 µg/mL | Enhanced Antibiotic's Activity (fold increase), Ceftazidime [2]: 2 fold | Enhanced Antibiotic's Activity (fold increase), Doxycycline [2]: 32 fold | Enhanced Antibiotic's Activity (fold increase), Levofloxacin [2]: 16 fold

NCC(O)C[C@H](N)CNC(=O)c1[nH]c2ccccc2c1Sc1cccc(F)c1 (stereo partly drawn) [Example 29, N-((2S)-2,5-diamino-4-hydroxypentyl)-3-((3-fluorophenyl)thio)-1H-indole-2-carboxamide hydrogen chloride salt]
MIC [1, 3]: 200 µg/mL | Enhanced Antibiotic's Activity (fold increase), Ceftazidime [2]: 2 fold | Enhanced Antibiotic's Activity (fold increase), Doxycycline [2]: 64 fold | Enhanced Antibiotic's Activity (fold increase), Levofloxacin [2]: 32 fold

NCC(O)C[C@H](N)CNC(=O)c1[nH]c2ccccc2c1-c1ccccc1 (stereo partly drawn) [Example 12, N-((2S)-2,5-diamino-4-hydroxypentyl)-3-phenyl-1H-indole-2-carboxamide hydrogen chloride salt]
MIC [1, 3]: > 100 µg/mL | Enhanced Antibiotic's Activity (fold increase), Ceftazidime [2]: 2 fold | Enhanced Antibiotic's Activity (fold increase), Doxycycline [2]: 32 fold | Enhanced Antibiotic's Activity (fold increase), Levofloxacin [2]: 16 fold

NCCC(O)[C@@H](N)CNC(=O)c1[nH]c2ccc(F)cc2c1C1CCCCC1 (stereo partly drawn) [Example 5, 3-cyclohexyl-N-((2S)-2,5-diamino-3-hydroxypentyl)-5-fluoro-1H-indole-2-carboxamide hydrogen chloride salt]
MIC [1, 3]: 50 µg/mL | Enhanced Antibiotic's Activity (fold increase), Ceftazidime [2]: 16 fold | Enhanced Antibiotic's Activity (fold increase), Doxycycline [2]: 32 fold | Enhanced Antibiotic's Activity (fold increase), Levofloxacin [2]: 32 fold

NCC1(O)CN[C@H](CNC(=O)c2[nH]c3ccc(F)cc3c2-c2ccccc2Cl)C1 (stereo partly drawn) [Example 27, N-(((2S)-4-(aminomethyl)-4-hydroxypyrrolidin-2-yl)methyl)-3-(2-chlorophenyl)-5-fluoro-1H-indole-2-carboxamide hydrogen chloride salt]
MIC [1, 3]: > 100 µg/mL | Enhanced Antibiotic's Activity (fold increase), Levofloxacin [2]: 1 (1) fold

NCCOC[C@H](N)CNC(=O)c1[nH]c2ccccc2c1-c1ccccc1 [Example 21, (R)—N-(2-amino-3-(2-aminoethoxy)propyl)-3-phenyl-1H-indole-2-carboxamide hydrogen chloride salt]
MIC [1, 3]: > 100 µg/mL | Enhanced Antibiotic's Activity (fold increase), Ceftazidime [2]: 1 fold | Enhanced Antibiotic's Activity (fold increase), Doxycycline [2]: 16 fold | Enhanced Antibiotic's Activity (fold increase), Levofloxacin [2]: 4 fold

NC[C@H]1CN[C@H](CNC(=O)c2[nH]c3ccccc3c2-c2ccc(F)cc2)C1=O [Example 25, N-(((2R,4S)-4-(aminomethyl)-3-oxopyrrolidin-2-yl)methyl)-3-(4-fluorophenyl)-1H-indole-2-carboxamide hydrogen chloride salt]
MIC [1, 3]: > 100 µg/mL | Enhanced Antibiotic's Activity (fold increase), Ceftazidime [2]: 1 fold | Enhanced Antibiotic's Activity (fold increase), Doxycycline [2]: 1 fold | Enhanced Antibiotic's Activity (fold increase), Levofloxacin [2]: 1 (1) fold

NCC(O)C[C@H](N)CNC(=O)c1[nH]c2ccc(F)cc2c1-c1ccccc1Cl (stereo partly drawn) [Example 8, 3-(2-chlorophenyl)-N-((2S)-2,5-diamino-4-hydroxypentyl)-5-fluoro-1H-indole-2-carboxamide hydrogen chloride salt]
MIC [1, 3]: > 100 µg/mL | Enhanced Antibiotic's Activity (fold increase), Ceftazidime [2]: 2 fold | Enhanced Antibiotic's Activity (fold increase), Doxycycline [2]: 16 fold | Enhanced Antibiotic's Activity (fold increase), Levofloxacin [2]: 16 fold

N#Cc1ccc(-c2c(C(=O)NC[C@@H](N)CC(O)CN)[nH]c3ccc(F)cc23)cc1 (stereo partly drawn) [Example 9, 3-(4-cyanophenyl)-N-((2S)-2,5-diamino-4-hydroxypentyl)-5-fluoro-1H-indole-2-carboxamide hydrogen chloride salt]
MIC [1, 3]: > 100 µg/mL | Enhanced Antibiotic's Activity (fold increase), Ceftazidime [2]: 2 fold | Enhanced Antibiotic's Activity (fold increase), Doxycycline [2]: 32 fold | Enhanced Antibiotic's Activity (fold increase), Levofloxacin [2]: 32 fold

NC[C@H]1CN[C@H](CNC(=O)c2[nH]c3ccccc3c2-c2ccc(F)cc2)[C@H]1O [Example 23, N-(((2R,3S,4S)-4-(aminomethyl)-3-hydroxypyrrolidin-2-yl)methyl)-3-(4-fluorophenyl)-1H-indole-2-carboxamide hydrogen chloride salt]
MIC [1, 3]: > 100 µg/mL | Enhanced Antibiotic's Activity (fold increase), Ceftazidime [2]: 2 fold | Enhanced Antibiotic's Activity (fold increase), Doxycycline [2]: 16 fold | Enhanced Antibiotic's Activity (fold increase), Levofloxacin [2]: 8 fold

NCCC[C@H](N)COC[C@H](N)CNC(=O)c1[nH]c2ccccc2c1-c1ccc(F)cc1 [Example 34, N—((R)-2-amino-3-(((S)-2,5-diaminopentyl)oxy)propyl)-3-(4-fluorophenyl)-1H-indole-2-carboxamide hydrogen chloride salt]
MIC [1, 3]: > 200 µg/mL | Enhanced Antibiotic's Activity (fold increase), Doxycycline [2]: 32 fold | Enhanced Antibiotic's Activity (fold increase), Levofloxacin [2]: 8 fold

CC(C)(O/N=C(\C(=O)N[C@@H]1C(=O)N2C(C(=O)[O-])=C(C[n+]3ccccc3)CS[C@H]12)c1csc(N)n1)C(=O)O [ceftazidime, Ceftazidime, reference compound]
MIC of antibiotic in the absence of EPI [2]: 2 µg/mL

NCC(O)C[C@H](N)CNC(=O)c1[nH]c2ccc(F)cc2c1-c1ccccc1 (stereo partly drawn) [Example 13, N-((2S)-2,5-diamino-4-hydroxypentyl)-5-fluoro-3-phenyl-1H-indole-2-carboxamide hydrogen chloride salt]
MIC [1, 3]: > 100 µg/mL | Enhanced Antibiotic's Activity (fold increase), Ceftazidime [2]: 2 fold | Enhanced Antibiotic's Activity (fold increase), Doxycycline [2]: 32 fold | Enhanced Antibiotic's Activity (fold increase), Levofloxacin [2]: 32 fold

NCCC(O)[C@@H](N)CNC(=O)c1[nH]c2ccccc2c1C1CCCC1 (stereo partly drawn) [Example 4, 3-cyclopentyl-N-((2S)-2,5-diamino-3-hydroxypentyl)-1H-indole-2-carboxamide hydrogen chloride salt]
MIC [1, 3]: > 100 µg/mL | Enhanced Antibiotic's Activity (fold increase), Ceftazidime [2]: 4 fold | Enhanced Antibiotic's Activity (fold increase), Doxycycline [2]: 32 fold | Enhanced Antibiotic's Activity (fold increase), Levofloxacin [2]: 32 fold

C[C@H]1c2cccc(O)c2C(=O)C2=C(O)[C@]3(O)C(=O)C(C(N)=O)=C(O)[C@@H](N(C)C)[C@@H]3[C@@H](O)[C@@H]21 [doxycycline, Doxycycline, reference compound]
MIC of antibiotic in the absence of EPI [2]: 32 µg/mL

NC[C@H]1CN[C@H](CNC(=O)c2[nH]c3ccc(F)cc3c2-c2ccccc2)[C@H]1O [Example 24, N-(((2R,3S,4S)-4-(aminomethyl)-3-hydroxypyrrolidin-2-yl)methyl)-5-fluoro-3-phenyl-1H-indole-2-carboxamide hydrogen chloride salt]
MIC [1, 3]: > 100 µg/mL | Enhanced Antibiotic's Activity (fold increase), Levofloxacin [2]: 16 fold

NCC(O)[C@H](N)CNC(=O)c1[nH]c2ccccc2c1C1CCCC1 (stereo partly drawn) [Example 36, 3-cyclopentyl-N-((2R)-2,4-diamino-3-hydroxybutyl)-1H-indole-2-carboxamide]
MIC ([1]; ATCC27853, P. aeruginosa ATCC 27853, compound alone, read-out: Intrinsic MIC of Compound): 100 µg/mL | Enhanced Antibiotic's Activity (fold increase), Ceftazidime [2]: 2 fold | Enhanced Antibiotic's Activity (fold increase), Doxycycline [2]: 32 fold | Enhanced Antibiotic's Activity (fold increase), Levofloxacin [2]: 8 fold

NC[C@@H](O)C[C@H](N)CNC(=O)c1cc2ccc(-c3ccc(F)cc3)cc2[nH]1 [Example 30, 6-(4-fluorophenyl)-N-((2S)-2,5-diamino-4-hydroxypentyl)-1H-indole-2-carboxamide hydrogen chloride salt]
MIC [1, 3]: 50 µg/mL | Enhanced Antibiotic's Activity (fold increase), Levofloxacin [2]: 16 fold

NCC(O)C[C@H](N)CNC(=O)c1[nH]c2ccccc2c1C1CCCCC1 (stereo partly drawn) [Example 15, 3-cyclohexyl-N-((2S)-2,5-diamino-4-hydroxypentyl)-1H-indole-2-carboxamide hydrogen chloride salt]
MIC [1, 3]: 50 µg/mL | Enhanced Antibiotic's Activity (fold increase), Ceftazidime [2]: 4 fold | Enhanced Antibiotic's Activity (fold increase), Doxycycline [2]: 32 fold | Enhanced Antibiotic's Activity (fold increase), Levofloxacin [2]: 32 fold

C[C@H]1COc2c(N3CCN(C)CC3)c(F)cc3c(=O)c(C(=O)O)cn1c23 [levofloxacin, Levofloxacin, reference compound]
MIC of antibiotic in the absence of EPI [2]: 1 µg/mL
